Where two headings read alike, the source gives them in different places.

Consider 18 compounds from patent US11285156B2, “Substituted piperazines as KRAS G12C inhibitors” (Amgen Inc., priority 2018, dated 2022).

Test [1] deals with Phosphorylation of ERK1/2 in A549 cells. Put plainly: Phospho-ERK1/2 MSD assay in A549 cells. Type of test: cell-based. The note with it: read-out: p-ERK IC50 (2 h, A549; μM), 2 h compound treatment, A549 cells, EGF stimulated. Here is the method:
Phospho-ERK1/2 MSD Assay:
MIA PaCa-2 (ATCC® CRL-1420™) and A549 (ATCC® CCL-185™) cells were cultured in RPMI 1640 Medium (ThermoFisher Scientific 11875093) containing 10% fetal bovine serum (ThermoFisher Scientific 16000044) and 1× penicillin-streptomycin-glutamine (ThermoFisher Scientific 10378016). Sixteen hours prior to compound treatment, MIA PaCa-2 or A549 cells were seeded in 96-well cell culture plates at a density of 25,000 cells/well and incubated at 37° C., 5% CO2. A compound dose-response titration was diluted in growth media, added to appropriate wells of a cell culture plate, and then incubated at 37° C., 5% CO2 for 2 or 4 hours (see Table 15). Following compound treatment, cells were stimulated with 10 ng/mL EGF (Roche 11376454001) for 10 min, washed with ice-cold Dulbecco's phosphate-buffered saline, no Ca2+ or Mg2+ (ThermoFisher Scientific 14190144), and then lysed in RIPA buffer (50 mM Tris-HCl pH 7.5, 1% Igepal, 0.5% sodium deoxycholate, 150 mM NaCl. and 0.5% sodium dodecyl sulfate) containing protease inhibitors (Roche 4693132001) and phosphatase inhibitors (Roche 4906837001). Phosphorylation of ERK1/2 in compound-treated lysates was assayed using Phospho-ERK1/2 Whole Cell Lysate kits (Meso Scale Discovery K151DWD) according to the manufacturer's protocol.

In test [2] the test system is Phosphorylation of ERK1/2 in MIA PaCa-2 cells. Put plainly: Phospho-ERK1/2 MSD assay in MIA PaCa-2 cells. Type of test: cell-based. The note with it: read-out: p-ERK IC50 (2 h, MiaPaCa-2; μM), 2 h compound treatment, MIA PaCa-2 cells, EGF stimulated. Put shortly: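 Phospho-ERK1/2 measured by MSD electrochemiluminescence kit in RIPA lysates of MIA PaCa-2 cells. Cells were treated with compound titrations for 2 or 4 h at 37 °C, 5% CO2, followed by a 10 min pulse of 10 ng/mL EGF.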

Test [3] has as its target GDP-bound KRAS protein (aa 1-169), containing both G12C and C118A amino acid substitutions (Homo sapiens (Human), UniProt P01116, C118A/G12C). Kind of test: Coupled nucleotide exchange assay (SOS-mediated nucleotide exchange, AlphaScreen). It is filed as biochemical. The note with it: 5 min compound pre-incubation; for IC50: read-out: Coupled exchange IC50 (5 min; μM). For orientation: In Alpha technology, singlet oxygen from a donor bead excites a nearby acceptor bead.

GDP-bound KRAS protein (aa 1-169), containing both G12C and C118A amino acid substitutions, sequence (P01116 other isoform, or with tags, fused parts or gaps G12C/C118A): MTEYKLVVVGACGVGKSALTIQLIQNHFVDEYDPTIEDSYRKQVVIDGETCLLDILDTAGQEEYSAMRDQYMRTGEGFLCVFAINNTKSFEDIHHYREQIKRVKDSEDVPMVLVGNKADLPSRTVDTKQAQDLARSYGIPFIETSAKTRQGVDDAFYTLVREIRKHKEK

As usually defined, the IC50 is the point on the concentration scale where inhibition reaches its midpoint. In the case of `C=CC(=O)N1C[C@H](C)N(c2nc(=O)n(-c3c(C(C)C)nc(C=C)nc3C(C)C)c3nc(-c4ccccc4F)c(Cl)cc23)C[C@H]1C` [Example 159, 4-((2S,5R)-4-Acryloyl-2,5-dimethylpiperazin-1-yl)-6-chloro-1-(4,6-diisopropyl-2-vinylpyrimidin-5-yl)-7-(2-fluorophenyl)pyrido[2,3-d]pyrimidin-2(1H)-one], the IC50 in test [1] (Homo sapiens, A549, 2 h) was determined as 3.04 µM; in test [2] (Homo sapiens, MIA PaCa-2, 2 h) it was 0.119 µM; in test [3], 0.046 µM.
Regarding `C=CC(=O)N1CCN(c2nc(=O)n(CC(C)(C)OC)c3nc(-c4ccccc4F)c(Cl)cc23)CC1` [Example 106-5, 6-Chloro-7-(2-fluorophenyl)-1-(2-methoxy-2-methyl-propyl)-4-(4-prop-2-enoylpiperazin-1-yl)pyrido[2,3-d]pyrimidin-2-one], the IC50 in test [1] (Homo sapiens, A549, 2 h) is > 7.5 µM; in test [2] (Homo sapiens, MIA PaCa-2, 2 h), 1.46 µM; in test [3] it was 6.13 µM.
For `C=CC(=O)N1C[C@H](C)N(c2nc(=O)n(-c3c(C)ccnc3C(C)C)c3nc(C4CCC4)c(Cl)cc23)C[C@H]1C` (atropisomer, axis not shown; (M)) [Example 95-5, (M)-6-chloro-7-cyclobutyl-4-[(2S,5R)-2,5-dimethyl-4-prop-2-enoyl-piperazin-1-yl]-1-(2-isopropyl-4-methyl-3-pyridyl)pyrido [2,3-d]pyrimidin-2-one] the same measures were > 7.5 µM, 0.611 µM and 0.304 µM.
Take `C=CC(=O)N1C[C@H](C)N(c2nc(=O)n(-c3c(C(C)C)ncnc3C3CC3)c3nc(-c4ccccc4C)c(Cl)cc23)C[C@H]1C` (single isomer, unassigned) [Example 108-2-1]: the IC50 in test [1] is > 7.5 µM; in test [2], 0.046 µM; in test [3], 0.035 µM.
As to `C=CC(=O)N1C[C@H](C)N(c2nc(=O)n(-c3c(C(C)C)cccc3[S+](C)[O-])c3nc(-c4ccccc4F)c(Cl)cc23)C[C@H]1C` (single isomer, unassigned) [Example 209-1], the IC50 in test [1] (Homo sapiens, A549, 2 h) is > 7.5 µM; in test [2] (Homo sapiens, MIA PaCa-2, 2 h), 0.116 µM. In addition, in test [3], the “Coupled exchange IC50 (5 min; μM)” value was determined as 0.088 µM.
Consider `C=CC(=O)N1CCN(c2nc(=O)n(-c3c(C)ccnc3C(C)C)c3nc(-c4c(N)cccc4F)c(Cl)cc23)CC1CC#N` (atropisomer, axis not shown; (M)) [Example 144-1, (M)-2-[4-[7-(2-Amino-6-fluoro-phenyl)-6-chloro-1-(2-isopropyl-4-methyl-3-pyridyl)-2-oxo-pyrido[2,3-d]pyrimidin-4-yl]-1-prop-2-enoyl-piperazin-2-yl]acetonitrile], for which the IC50 in test [1] is > 7.5 µM; in test [2], 0.23 µM; in test [3], 0.166 µM.
For `C=CC(=O)N1C[C@H](C)N(c2nc(=O)n(-c3c(CN4CCCC4)cccc3C(C)C)c3nc(-c4ccccc4F)c(Cl)cc23)C[C@H]1C` (single isomer, unassigned) [Example 80-10-2] the same measures were > 7.5 µM, 0.04 µM and 0.053 µM.
In the case of `C=CC(=O)N1C[C@H](C)N(c2nc(=O)n(-c3c(C)ccnc3C(C)C)c3nc(-c4cc(F)c(F)cc4N)c(Cl)cc23)C[C@H]1C` (atropisomer, axis not shown; (M)) [Example 92-31, (M)-7-(2-Amino-4,5-difluoro-phenyl)-6-chloro-4-[(2S,5R)-2,5-dimethyl-4-prop-2-enoyl-piperazin-1-yl]-1-(2-isopropyl-4-methyl-3-pyridyl)pyrido [2,3-d]pyrimidin-2-one], the concentration for half-maximal inhibition (IC50) is > 7.5 µM in test [1] (Homo sapiens, A549, 2 h); 0.022 µM in test [2] (Homo sapiens, MIA PaCa-2, 2 h); 0.014 µM in test [3].
With `C=CC(=O)N1C[C@H](C)N(c2nc(=O)n(-c3c(C)ccnc3C(C)C)c3nc(-c4ccccc4[N+](=O)[O-])c(Cl)cc23)C[C@H]1C` (atropisomer, axis not shown; (M)) [Example 92-36, (M)-6-Chloro-4-[(2S,5R)-2,5-dimethyl-4-prop-2-enoyl-piperazin-1-yl]-1-(2-isopropyl-4-methyl-3-pyridyl)-7-(2-nitrophenyl) pyrido[2,3-d]pyrimidin-2-one], the IC50 in test [1] (Homo sapiens, A549, 2 h) came to 1.87 µM; in test [2] (Homo sapiens, MIA PaCa-2, 2 h) it was 0.133 µM; in test [3] it was 0.275 µM.
Regarding `C=CC(=O)N1C[C@H](C)N(c2nc(=O)n(-c3c(N)ncnc3C(C)C)c3nc(-c4ccccc4F)c(Cl)cc23)C[C@H]1C` (single isomer, unassigned) [Example 189-1], the IC50 in test [1] (Homo sapiens, A549, 2 h) was > 7.5 µM; in test [2] (Homo sapiens, MIA PaCa-2, 2 h), 0.072 µM. Moreover, the “Coupled exchange IC50 (5 min; μM)” value in test [3] came out at 0.036 µM.
Take `C=CC(=O)N1CCN(c2nc(CN3CCOCC3)c(-c3ccccc3C(C)C)c3nc(-c4ccccc4F)c(Cl)cc23)CC1` [Example 181, 1-(4-(3-Chloro-2-(2-fluorophenyl)-8-(2-isopropylphenyl)-7-(morpholinomethyl)-1,6-naphthyridin-5-yl)piperazin-1-yl)prop-2-en-1-one]: the concentration for half-maximal inhibition (IC50) in test [1] (Homo sapiens, A549, 2 h) is > 7.5 µM; in test [2] (Homo sapiens, MIA PaCa-2, 2 h) it was 10 µM; in test [3], 4.53 µM.
As for `C=CC(=O)N1C[C@H](C)N(c2nc(=O)n(-c3c(CN(C)C)ncnc3C(C)C)c3nc(-c4ccccc4F)c(Cl)cc23)C[C@H]1C` (single isomer, unassigned) [Example 80-18-2], the half-inhibitory concentration (IC50) in test [1] (Homo sapiens, A549, 2 h) is > 7.5 µM; in test [2] (Homo sapiens, MIA PaCa-2, 2 h), 0.044 µM; in test [3], 0.11 µM.
Consider `C=CC(=O)N1C[C@H](C)N(c2nc(=O)n(-c3c(C(C)C)ncnc3C3CC3)c3nc(-c4ccccc4F)c(Cl)cc23)C[C@H]1C` [Example 108-1, 4-((2S,5R)-4-Acryloyl-2,5-dimethylpiperazin-1-yl)-6-chloro-1-(4-cyclopropyl-6-isopropylpyrimidin-5-yl)-7-(2-fluorophenyl)pyrido[2,3-d]pyrimidin-2(1H)-one], for which the 50% inhibitory concentration (IC50) is > 7.5 µM in test [1] (Homo sapiens, A549, 2 h); 0.039 µM in test [2]; 0.009 µM in test [3].
Take `C=CC(=O)N1C[C@H](C)N(c2nc(=O)n(-c3c(C(C)C)nc(OCCOC)nc3C(C)C)c3nc(-c4ccccc4F)c(Cl)cc23)C[C@H]1C` [Example 156, 4-((2S,5R)-4-Acryloyl-2,5-dimethylpiperazin-1-yl)-6-chloro-1-(4,6-diisopropyl-2-(2-methoxyethoxy)pyrimidin-5-yl)-7-(2-fluorophenyl)pyrido[2,3-d]pyrimidin-2(1H)-one]: the IC50 in test [1] (Homo sapiens, A549, 2 h) is > 7.5 µM; in test [2] (Homo sapiens, MIA PaCa-2, 2 h), 0.148 µM; in test [3], 0.369 µM.
As for `C=CC(=O)N1C[C@H](C)N(c2nc(=O)n(-c3c(C)ccnc3C(C)C)c3nc(-c4c(F)cccc4S(C)(=O)=O)c(Cl)cc23)C[C@H]1C` (atropisomer, axis not shown; (M)) [Example 214-1, (M)-4-((2S,5R)-4-Acryloyl-2,5-dimethylpiperazin-1-yl)-6-chloro-7-(2-fluoro-6-(methylsulfonyl)phenyl)-1-(2-isopropyl-4-methylpyridin-3-yl)pyrido[2,3-d]pyrimidin-2(1H)-one], the IC50 in test [1] (Homo sapiens, A549, 2 h) was > 7.5 µM; in test [2] (Homo sapiens, MIA PaCa-2, 2 h), 0.03 µM.
Taken in the same sequence, the figures for `C=CC(=O)N1[C@H](C)CN(c2nc(=O)n(-c3c(C(C)C)cnnc3C(C)C)c3nc(-c4ccccc4F)c(Cl)cc23)C[C@@H]1C` (single isomer, unassigned) [Example 206-1, 4-(cis-4-Acryloyl-3,5-dimethylpiperazin-1-yl)-6-chloro-1-(3,5-diisopropylpyridazin-4-yl)-7-(2-fluorophenyl)pyrido[2,3-d]pyrimidin-2(1H)-one] were > 7.5 µM and 0.1 µM.
Regarding `C=CC(=O)N1C[C@H](C)N(c2nc(=O)n(-c3c(N(C)C)ccnc3C(C)C)c3nc(-c4c(N)cccc4F)c(Cl)cc23)C[C@H]1C` [Example 55-57, 7-(2-Amino-6-fluoro-phenyl)-6-chloro-1-[4-(dimethylamino)-2-isopropyl-3-pyridyl]-4-[(2S,5R)-2,5-dimethyl-4-prop-2-enoyl-piperazin-1-yl]pyrido[2,3-d]pyrimidin-2-one], the IC50 is > 7.5 µM in test [1] and 0.177 µM in test [2].
For `C=CC(=O)N1C[C@H](C)N(c2nc(=O)n(-c3c(C)ccnc3C(C)C)c3nc(-c4c(F)cccc4S(C)(=O)=O)c(Cl)cc23)C[C@H]1C` (atropisomer, axis not shown; (M)) [Example 214, (M)-4-((2S,5R)-4-Acryloyl-2,5-dimethylpiperazin-1-yl)-6-chloro-7-(2-fluoro-6-(methylsulfonyl)phenyl)-1-(2-isopropyl-4-methylpyridin-3-yl)pyrido[2,3-d]pyrimidin-2(1H)-one], the IC50 in test [1] is > 7.5 µM; in test [2], 0.025 µM.
